Assay results published in ChEMBL document CHEMBL1151663, “Further explorations of unnatural alkaloids” (J Nat Prod, 1985).
Activity calls are given as the source filed them. The rule behind the calls is not given here.

Assays:
[1] = biological target: T1, MAO-B (amine oxidase [flavin-containing] B) (Homo sapiens, UniProt P27338); experiment: Inhibition of human liver MAOB at 1 mM relative to MPTP
T1 sequence (P27338 whole entry): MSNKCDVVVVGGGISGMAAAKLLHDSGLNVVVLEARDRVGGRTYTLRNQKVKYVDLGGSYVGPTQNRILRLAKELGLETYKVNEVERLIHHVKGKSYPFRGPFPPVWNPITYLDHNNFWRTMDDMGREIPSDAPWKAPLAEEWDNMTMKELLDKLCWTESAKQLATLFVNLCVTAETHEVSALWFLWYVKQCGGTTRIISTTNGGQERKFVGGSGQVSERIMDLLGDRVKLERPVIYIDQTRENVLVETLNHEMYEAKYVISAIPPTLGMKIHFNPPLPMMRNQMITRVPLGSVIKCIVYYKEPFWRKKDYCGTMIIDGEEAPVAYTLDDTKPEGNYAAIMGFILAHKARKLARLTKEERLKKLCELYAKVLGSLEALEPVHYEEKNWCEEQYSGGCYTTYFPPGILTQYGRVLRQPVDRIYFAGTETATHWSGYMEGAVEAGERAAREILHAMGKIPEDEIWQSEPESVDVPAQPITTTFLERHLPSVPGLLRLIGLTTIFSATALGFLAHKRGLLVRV

[2] = biological target: T2, Amine oxidase [flavin-containing] B (Homo sapiens, UniProt P27338); experiment: Activity of human liver MAOB assessed as specific activity at 1 mM; settings: 1000 µM
T2 sequence (P27338 whole entry): T1 sequence (P27338 whole entry)

Rattus norvegicus = species: Rattus norvegicus; experiment: Displacement of [3H]colchicine from rat brain tubulin at 25 uM
Mus musculus = species: Mus musculus; experiment: Analgesic activity in mouse by hot plate test; type: functional, organism-based
[3] = Toxicity in intramuscular dosed mouse; type: organism-based; settings: in vivo, im

SMILES | Activity [2] [nmol/min/mg] | further results
CC1CN(C)CC=C1c1ccccc1 (centres undefined) | 11.4 | inhibition at 1000 µM [1]: 13.4%
CN1CC=C(c2ccc(Cl)cc2)CC1 | 5.8 | inhibition at 1000 µM [1]: 6.8%
C1=C(c2ccccc2)CCN(CC2CC2)C1 | < 5 | –
CN1CC=CC(c2ccccc2)C1 (centres undefined) | < 5 | –
CCCC(=O)N[C@H]1CCc2cc(OC)c(OC)c(OC)c2-c2ccc(OC)c(=O)cc21 | – | inhibition (Rattus norvegicus; tested as the 2H-labelled form): 79%
CN1CC=C(c2ccc(O)cc2)CC1 | < 5 | –
C1=C(c2ccccc2)CCN(Cc2ccccc2)C1 | < 5 | –
C=CCN1CC=C(c2ccccc2)CC1 | < 5 | –
CCCN1CC=C(c2ccccc2)CC1 | < 5 | –
CN1CC[C@@]2(C)c3cc(O)ccc3N(C)[C@@H]12 | – | Activity (Mus musculus): Active
CN1CC[C@]2(C)c3cc(O)ccc3N(C)[C@H]12 | – | Activity (Mus musculus): inactive
C=CC(=O)N[C@H]1CCc2cc(OC)c(OC)c(OC)c2-c2ccc(OC)c(=O)cc21 | – | LD50 [3]: 17.4 µmol/kg; inhibition (Rattus norvegicus): 82%
CC(C)N1CC=C(c2ccccc2)CC1 | < 5 | –
COc1cc2c(c(OC)c1OC)-c1ccc(OC)c(=O)cc1[C@@H](NC(C)=O)CC2 [COLCHICINE] | – | LD50 [3]: 3 µmol/kg
CN1CC=C(c2ccccc2)CC1 | 85.2 | inhibition at 1000 µM [1]: 100%
CC1=C(c2ccccc2)CCN(C)C1 | 5.3 | inhibition at 1000 µM [1]: 6.2%
C/C=C/C(=O)N[C@H]1CCc2cc(OC)c(OC)c(OC)c2-c2ccc(OC)c(=O)cc21 | – | LD50 [3]: 3.4 µmol/kg; inhibition (Rattus norvegicus): 67%
CN1CCC=C(c2ccccc2)C1 | < 5 | –
C1=C(c2ccccc2)CCNC1 | 58.6 | inhibition at 1000 µM [1]: 68.8%
CCCCN1CC=C(c2ccccc2)CC1 | < 5 | –
CCN1CC=C(c2ccccc2)CC1 | 8.82 | inhibition at 1000 µM [1]: 10.4%
